Test results as given in patent US20260355165A1, “2,3,4,9-TETRAHYDRO-1H-PYRIDO[3,4-B]INDOLE DERIVATIVES AS ESTROGEN RECEPTOR MODULATORS FOR THE TREATMENT OF CANCER” (Olema Pharmaceuticals, Inc., priority 2022, published 2026).
pIC50: −log10 of the molar value.

Target: T1, estrogen receptor (Homo sapiens, UniProt P03372)
T1 construct: endogenous in cells; host or cells: ECC-1 cells
T1 sequence (P03372 1-595): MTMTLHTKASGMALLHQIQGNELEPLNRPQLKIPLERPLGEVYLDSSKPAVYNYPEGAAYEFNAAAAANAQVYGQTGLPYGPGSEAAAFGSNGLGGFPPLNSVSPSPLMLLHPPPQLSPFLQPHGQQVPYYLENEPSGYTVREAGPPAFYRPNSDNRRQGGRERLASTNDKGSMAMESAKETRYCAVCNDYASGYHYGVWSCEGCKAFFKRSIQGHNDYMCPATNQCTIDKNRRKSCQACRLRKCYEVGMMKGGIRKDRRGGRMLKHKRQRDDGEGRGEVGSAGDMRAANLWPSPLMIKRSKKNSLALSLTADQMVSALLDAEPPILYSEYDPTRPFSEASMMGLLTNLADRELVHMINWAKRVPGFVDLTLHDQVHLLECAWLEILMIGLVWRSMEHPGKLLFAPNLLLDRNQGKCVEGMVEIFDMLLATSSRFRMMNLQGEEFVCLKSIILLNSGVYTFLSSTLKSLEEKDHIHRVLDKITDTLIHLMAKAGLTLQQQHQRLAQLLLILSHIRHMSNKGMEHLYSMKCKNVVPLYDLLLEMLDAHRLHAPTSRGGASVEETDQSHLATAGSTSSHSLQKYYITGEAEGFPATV
Experiment: AP assay (alkaline phosphatase activity in ECC-1 cells), agonist mode (absence of E2) and antagonist mode (presence of 500 pM E2)
Type: cell-based
Conditions: 3 days, AP activity normalized to 500 pM E2 alone, agonist and antagonist mode combined
Method: ECC-1 cells were trypsinized and resuspended in hormone-depleted media and plated at a density of 15 k cells per well into a 96-well plate for at least 4 hours. Cells were treated with test compounds in the absence of E2 (for agonist mode) or in the presence of 500 pM E2 (for antagonist mode) for 3 days and plates were subsequently frozen at −80 °C. Thawed plates were incubated with a chromogenic substrate of AP, p-nitrophenyl phosphate (Thermo Fisher Scientific), for 40 minutes at 42 °C, and absorbances were read at 405 nm. AP activity was normalized to the activity of 500 pM E2 alone.
The compound numbers correspond to the compound numbers of Table 1 and 2. Compounds having an activity designated as “+” provided estrogen receptor agonism having (i) at least 80% increase in the E2-normalized signal in the AP assay (agonist mode) and (ii) no more than 80% reduction in the E2-normalized signal in the AP assay (antagonist mode). Compounds having an activity designated as “++” provided estrogen receptor antagonism having (i) between 10% and 80% increase in the E2-normalized signal in the AP assay (agonist mode) and (ii) between 10% and 80% reduction in the E2-normalized signal in the AP assay (antagonist mode).

Row | SMILES | Activity (estrogen receptor modulation, e.g., agonism and antagonism)
1 | CCCN(C)Cc1ccc2c([C@@H]3c4[nH]c5ccccc5c4C[C@@H](C)N3CC(C)(C)F)n[nH]c2c1 [Compound I-13, N-[[3-[(1S,3R)-2-(2-fluoro-2-methyl-propyl)-3-methyl-1,3,4,9-tetrahydropyrido[3,4-b]indol-1-yl]-1H-indazol-6-yl]methyl]-N-methyl-propan-1-amine] | + (estrogen receptor agonism having (i) at least 80% increase in the E2-normalized signal in the AP assay (agonist mode) and (ii) no more than 80% reduction in the E2-normalized signal in the AP assay (antagonist mode))
2 | C[C@@H]1Cc2c([nH]c3ccccc23)[C@@H](c2ccc3oc(CN4CC(CF)C4)cc3c2)N1CC(C)(C)F [Compound I-57, (1R,3R)-1-[2-[[3-(fluoromethyl)azetidin-1-yl]methyl]benzofuran-5-yl]-2-(2-fluoro-2-methyl-propyl)-3-methyl-1,3,4,9-tetrahydropyrido[3,4-b]indole] | +++ (estrogen receptor antagonism (i) with pIC50 greater than 7.5 and at least a 10% reduction in the E2-normalized signal in the AP assay (antagonist mode); and (ii) no more than 10% increase in E2-normalized signal in the AP assay (agonist mode))
3 | C[C@@H]1Cc2c([nH]c3ccccc23)[C@@H](c2c[nH]c3ncc(CN4CC5CC5C4)cc23)N1CC(C)(C)F (stereo partly drawn) [Compound I-61, (1R,3R)-1-[5-(3-azabicyclo[3.1.0]hexan-3-ylmethyl)-1H-pyrrolo[2,3-b]pyridin-3-yl]-2-(2-fluoro-2-methyl-propyl)-3-methyl-1,3,4,9-tetrahydropyrido[3,4-b]indole] | + (estrogen receptor agonism having (i) at least 80% increase in the E2-normalized signal in the AP assay (agonist mode) and (ii) no more than 80% reduction in the E2-normalized signal in the AP assay (antagonist mode))
4 | CCCN(C)Cc1ccc2c([C@@H]3c4[nH]c5ccccc5c4C[C@@H](C)N3CC(C)(C)F)c[nH]c2c1 [Compound I-7, N-[[3-[(1R,3R)-2-(2-fluoro-2-methyl-propyl)-3-methyl-1,3,4,9-tetrahydropyrido[3,4-b]indol-1-yl]-1H-indol-6-yl]methyl]-N-methyl-propan-1-amine] | + (estrogen receptor agonism having (i) at least 80% increase in the E2-normalized signal in the AP assay (agonist mode) and (ii) no more than 80% reduction in the E2-normalized signal in the AP assay (antagonist mode))
5 | C[C@@H]1Cc2c([nH]c3ccccc23)[C@@H](c2ccc3nc(CN4CC(CF)C4)oc3c2)N1CC(C)(C)F [Compound I-72, 2-[[3-(fluoromethyl)azetidin-1-yl]methyl]-6-[(1R,3R)-2-(2-fluoro-2-methyl-propyl)-3-methyl-1,3,4,9-tetrahydropyrido[3,4-b]indol-1-yl]-1,3-benzoxazole] | + (estrogen receptor agonism having (i) at least 80% increase in the E2-normalized signal in the AP assay (agonist mode) and (ii) no more than 80% reduction in the E2-normalized signal in the AP assay (antagonist mode))
6 | C[C@@H]1Cc2c([nH]c3ccccc23)[C@@H](c2c[nH]c3cc(CNCCCF)ccc23)N1CC(C)(C)F [Compound I-8, 3-fluoro-N-[[3-[(1R,3R)-2-(2-fluoro-2-methyl-propyl)-3-methyl-1,3,4,9-tetrahydropyrido[3,4-b]indol-1-yl]-1H-indol-6-yl]methyl]propan-1-amine] | + (estrogen receptor agonism having (i) at least 80% increase in the E2-normalized signal in the AP assay (agonist mode) and (ii) no more than 80% reduction in the E2-normalized signal in the AP assay (antagonist mode))
7 | C[C@@H]1Cc2c([nH]c3ccccc23)[C@@H](c2n[nH]c3cc(CN4CC(CF)C4)ccc23)N1CC(C)(C)F [Compound I-10, (1S,3R)-1-[6-[[3-(fluoromethyl)azetidin-1-yl]methyl]-1H-indazol-3-yl]-2-(2-fluoro-2-methyl-propyl)-3-methyl-1,3,4,9-tetrahydropyrido[3,4-b]indole] | +++ (estrogen receptor antagonism (i) with pIC50 greater than 7.5 and at least a 10% reduction in the E2-normalized signal in the AP assay (antagonist mode); and (ii) no more than 10% increase in E2-normalized signal in the AP assay (agonist mode))
8 | C[C@@H]1Cc2c([nH]c3ccccc23)[C@@H](c2n[nH]c3cc(CN4CC5(CC(O)C5)C4)ccc23)N1CC(C)(C)F [Compound I-31, 2-[[3-[(1S,3R)-2-(2-fluoro-2-methyl-propyl)-3-methyl-1,3,4,9-tetrahydropyrido[3,4-b]indol-1-yl]-1H-indazol-6-yl]methyl]-2-azaspiro[3.3]heptan-6-ol] | + (estrogen receptor agonism having (i) at least 80% increase in the E2-normalized signal in the AP assay (agonist mode) and (ii) no more than 80% reduction in the E2-normalized signal in the AP assay (antagonist mode))
9 | C[C@@H]1Cc2c([nH]c3ccccc23)[C@@H](c2c[nH]c3ncc(CN4CC(CF)C4)cc23)N1CC(C)(C)F [Compound I-60, (1R,3R)-1-[5-[[3-(fluoromethyl)azetidin-1-yl]methyl]-1H-pyrrolo[2,3-b]pyridin-3-yl]-2-(2-fluoro-2-methyl-propyl)-3-methyl-1,3,4,9-tetrahydropyrido[3,4-b]indole] | + (estrogen receptor agonism having (i) at least 80% increase in the E2-normalized signal in the AP assay (agonist mode) and (ii) no more than 80% reduction in the E2-normalized signal in the AP assay (antagonist mode))
10 | C[C@@H]1Cc2c([nH]c3ccccc23)[C@@H](c2ccc3oc(CN4CC(CF)C4)nc3c2)N1CC(F)(F)CO [Compound I-80, 2,2-difluoro-3-[(1R,3R)-1-[2-[[3-(fluoromethyl)azetidin-1-yl]methyl]-1,3-benzoxazol-5-yl]-3-methyl-1,3,4,9-tetrahydropyrido[3,4-b]indol-2-yl]propan-1-ol] | +++ (estrogen receptor antagonism (i) with pIC50 greater than 7.5 and at least a 10% reduction in the E2-normalized signal in the AP assay (antagonist mode); and (ii) no more than 10% increase in E2-normalized signal in the AP assay (agonist mode))
11 | CCCN1CC(n2ncc3cc([C@@H]4c5[nH]c6ccccc6c5C[C@@H](C)N4CC(F)(F)CO)ccc32)C1 (racemic) [Compound I-105, 2,2-difluoro-3-[rac-(1R,3R)-3-methyl-1-[1-(1-propylazetidin-3-yl)indazol-5-yl]-1,3,4,9-tetrahydropyrido[3,4-b]indol-2-yl]propan-1-ol] | ++ (estrogen receptor antagonism having (i) between 10% and 80% increase in the E2-normalized signal in the AP assay (agonist mode) and (ii) between 10% and 80% reduction in the E2-normalized signal in the AP assay (antagonist mode))

Same assay, conditions: AP assay, antagonist mode, 500 pM E2, 3 days

Row | pIC50 | SMILES
12 | > 6.40 | C[C@@H]1Cc2c([nH]c3ccccc23)[C@@H](c2ccc3[nH]c(CN4CC(CF)C4)cc3c2)N1CC(F)(F)C(F)F [Compound I-109, (1R,3R)-1-[2-[[3-(fluoromethyl)azetidin-1-yl]methyl]-1H-indol-5-yl]-3-methyl-2-(2,2,3,3-tetrafluoropropyl)-1,3,4,9-tetrahydropyrido[3,4-b]indole]

Same assay, conditions: agonist mode, absence of E2, 3 days

Row | increase in E2-normalized signal in the AP assay (agonist mode) | SMILES
13 | no more than 10% | C[C@@H]1Cc2c([nH]c3ccccc23)[C@@H](c2ccc3[nH]c(CN4CC(CF)C4)cc3c2)N1CC(F)(F)C(F)F [Compound I-109, (1R,3R)-1-[2-[[3-(fluoromethyl)azetidin-1-yl]methyl]-1H-indol-5-yl]-3-methyl-2-(2,2,3,3-tetrafluoropropyl)-1,3,4,9-tetrahydropyrido[3,4-b]indole]

Same assay, conditions: antagonist mode, 500 pM E2, 3 days

Row | reduction in the E2-normalized signal in the AP assay (antagonist mode) | SMILES
14 | ≥ 10% | C[C@@H]1Cc2c([nH]c3ccccc23)[C@@H](c2ccc3[nH]c(CN4CC(CF)C4)cc3c2)N1CC(F)(F)C(F)F [Compound I-109, (1R,3R)-1-[2-[[3-(fluoromethyl)azetidin-1-yl]methyl]-1H-indol-5-yl]-3-methyl-2-(2,2,3,3-tetrafluoropropyl)-1,3,4,9-tetrahydropyrido[3,4-b]indole]
